One may read the apparent Kd as a dissociation constant that holds for the conditions of the assay.

The results in this text go back to paper PMC9202945 (2022).

In experiment [1] the test system is Ctrl HP (FRET-labelled) (DNA, hairpin) GCATGCTTTTGCATGC
Briefly: fluorescence thermal shift assay. The conditions noted are these: 100 μM compound, 0.5 μM DNA, phosphate buffer.

Experiment [2] deals with PQS23 (FRET-labelled) (DNA, G4) AGGGGGCTGGGCCGGGGACCCGGGAGGGGTCGGGACGGGGCGGGG
Briefly: fluorescence thermal shift assay. The conditions noted are these: 100 μM compound, 0.5 μM DNA, phosphate buffer.

Experiment [3] has as its system Cy5-hTERT-FL (DNA, G4) GGGGAGGGGCTGGGAGGGCCCGGAGGGGGCTGGGCCGGGGACCCGGGAGGGGTCGGGACGGGGCGGGG
Description: microscale thermophoresis. The note with it: 25 mM KCl, pH 7.2, 1.5% DMSO.

Experiment [4] deals with GC Triplex (DNA, triplex) CCCCCCCCTTTTGGGGGGGGTTTTCCCCCCCC
Description: competition dialysis. The conditions noted are these: 185 mM K+, phosphate buffer, RT, 5 μM compound, 75 μM DNA as triplets, per triplet, per base.

In experiment [5] the test system is PQS23 (DNA, G4) AGGGGGCTGGGCCGGGGACCCGGGAGGGGTCGGGACGGGGCGGGG
Description: competition dialysis. The conditions noted are these: 185 mM K+; phosphate buffer, RT, 5 μM compound, 75 μM DNA as tetrads.

Experiment [6] relates to TERT-FL (hTERT-FL) (DNA, G4) GGGGAGGGGCTGGGAGGGCCCGGAGGGGGCTGGGCCGGGGACCCGGGAGGGGTCGGGACGGGGCGGGG
Description: competition dialysis. The conditions noted are these: 185 mM K+, phosphate buffer, RT, 5 μM compound, 75 μM DNA as tetrads, per tetrad, per base.

Experiment [7] concerns c-Myc G4 (DNA, G4) TGAGGGTGGGTAGGGTGGGTAA
Description: competition dialysis. The note with it: 185 mM K+, phosphate buffer, RT, 5 μM compound, 75 μM DNA as tetrads, per tetrad, per base.

In experiment [8] the test system is AT duplex (DNA, hairpin) ATATATATATCCCCATATATATAT
Briefly: competition dialysis. The conditions noted are these: 185 mM K+, phosphate buffer, RT, 5 μM compound, 75 μM DNA as base pairs, per base pair.

Experiment [9] deals with PQS12 (DNA, G4) AGGGGAGGGGCTGGGAGGGCCCGGAGGGGGCTGGGCCGGGGACCCGGGA
Briefly: competition dialysis. The note with it: 185 mM K+; phosphate buffer, RT, 5 μM compound, 75 μM DNA as tetrads.

The subject of experiment [10] is H-Tel G4 (DNA, G4) AGGGTTAGGGTTAGGGTTAGGG
Description: competition dialysis. The conditions noted are these: 185 mM K+, phosphate buffer, RT, 5 μM compound, 75 μM DNA as tetrads, per tetrad, per base.

The subject of experiment [11] is TERT-FL (hTERT-FL) (DNA, G4) GGGGAGGGGCTGGGAGGGCCCGGAGGGGGCTGGGCCGGGGACCCGGGAGGGGTCGGGACGGGGCGGGG
Description: CD melting, 260 nm. The note with it: 20 mM KCl; 25 μM compound, 1.1 μM DNA.

Experiment [12] concerns GC duplex (DNA, hairpin) GCGCGCGCGCTTTTGCGCGCGCGC
Briefly: competition dialysis. The note with it: 185 mM K+, phosphate buffer, RT, 5 μM compound, 75 μM DNA as base pairs, per base pair.

For experiment [13], the system named is PQS12 (FRET-labelled) (DNA, G4) AGGGGAGGGGCTGGGAGGGCCCGGAGGGGGCTGGGCCGGGGACCCGGGA
Briefly: fluorescence thermal shift assay. The note with it: 100 mM K+; 100 μM compound, 0.5 μM DNA, phosphate buffer.

On to `CCCC(CCC)C1CCN(c2nc(CCN)nc3ccccc23)CC1`, for which the binding entry in experiment [1] (K+ (concentration not stated)) is reported as “no”; in [2] (K+ (concentration not stated)), “yes”. In addition, in experiment [3] (BPEK buffer, 20 nM DNA), the Kd was 17 [7, 45] μM.
As to `CCOc1ccccc1CCNc1nc(CCN)nc2ccccc12`, the binding entry is “no” in experiment [1] (K+ (concentration not stated)) and “yes” in experiment [2] (K+ (concentration not stated)). This molecule also gave a Kd in experiment [3] (BPEK buffer (8 mM sodium phosphate, 1 mM EDTA), 20 nM DNA) of 3 µM.
In the case of `CCc1nc(N(CCC(=O)NC(C)C)CCc2ccccc2)c2ccccc2n1`, the Kd in experiment [3] (BPEK buffer, 20 nM DNA) was 5 [1, 23] μM.
`CN(CCc1ccccc1)c1nc(-c2ccc(F)cc2)nc2ccccc12`: the binding entry in experiment [3] (BPEK buffer, up to 200 μM, no reliable fit) is given as “no”.
Take `CN(CCc1ccccc1)c1nc(CCN)nc2ccccc12`: the “apparent Kd” value in experiment [4] is above 140 µM; in experiment [6] it was 24 µM; in experiment [7] it was above 140 µM; in experiment [8] it was above 140 µM; in experiment [10] it was above 140 µM; in experiment [12], above 140 µM. For the same molecule, the binding result in experiment [5], in experiment [9] and in [11] was “yes” in each case. In addition, the Kd in [3] (BPEK buffer, 20 nM DNA) was 8 [4, 19] μM.
With `COCCN1CC2CCC1CN(c1nc(N(C)C)nc(C)c1C)C2` (stereo not drawn), the “apparent Kd” value is above 140 µM in experiment [4]; 22 µM in [6]; above 140 µM in [7]; above 140 µM in experiment [8]; above 140 µM in [10]; above 140 µM in experiment [12]. The binding result in experiment [11] is given as “yes”.
Consider `Cc1cnccc1NCCNC(=O)c1cccc(CC2CCNCC2)c1`, for which the binding result was “no” in experiment [1] (100 mM K+), “yes” in [2] (100 mM K+) and “no” in [13].
Turning to `Cc1nc(NCCc2ccccc2)c2ccccc2n1`, the Kd in [3] (BPEK buffer, 20 nM DNA) was 13 [7, 24] μM.
On to `NC(N)=NCCCS(=O)(=O)Nc1ccc(Nc2c3ccccc3nc3cc([N+](=O)[O-])ccc23)cc1`, for which the “apparent Kd” value in [3] (BPEK buffer, 20 nM DNA, without calf thymus DNA, apparent) was found to be 2 µM.
